Source: ChEMBL document CHEMBL3885861, “Open TG-GATES”

Species on record: Rattus norvegicus
Assay: Open TG-GATES - Regimen: Single
Format: toxicity, organism-based, Sprague-Dawley
Parameters: regimen Single, gender Male, age 6 weeks
Conditions: in vivo, po, route gavage; for APTT / Bas / Eos / Fbg / Hb / Ht / Lym / MCH / MCHC / MCV / Mono / Neu / PT / Plat / RBC / Ret / WBC: tissue Blood; for KIDNEY_L / KIDNEY_R / KIDNEY_TOTAL: tissue Kidney; for LIVER: tissue Liver; for A/G / ALP / ALT / AST / BUN / CRE / Ca / Cl / DBIL / GLC / IP / K / LDH / Na / PL / RALB / TBIL / TC / TG / TP / gamma-GTP: tissue Plasma
[1] = 0 mg/kg, 3 h, dose level Control
[2] = 0 mg/kg, 6 h, dose level Control
[3] = 0 mg/kg, 9 h, dose level Control
[4] = 0 mg/kg, 24 h, dose level Control

## ClC(Cl)(Cl)Cl [CARBON TETRACHLORIDE]
[1]
  TERMINAL_BW: 204.7 g
  APTT: 16.7 s
  Bas: 0%
  Eos: 1%
  Fbg: 245 mg/dL
  Hb: 13 g/dL
  Ht: 37.3%
  Lym: 73.8%
  MCH: 21.7 pg
  MCHC: 34.8%
  MCV: 62.3 fL
  Mono: 3.6%
  Neu: 21.6%
  PT: 12 s
  Plat: 132.6 x10_4/uL
  RBC: 599 x10_4/ul
  Ret: 8.6%
  WBC: 103.4 x10_2/uL
  KIDNEY_L: 0.9 g
  KIDNEY_R: 0.9 g
  KIDNEY_TOTAL: 1.8 g
  LIVER: 10 g
  A/G: 1.6
  ALP: 947 IU/L
  ALT: 37.2 IU/L
  AST: 66.6 IU/L
  BUN: 13.2 mg/dL
  CRE: 0.4 mg/dL
  Ca: 11 mg/dL
  Cl: 104.2 meq/L
  DBIL: 0.3 mg/dL
  GLC: 207 mg/dL
  IP: 9 mg/dL
  K: 3.9 meq/L
  LDH: 209 IU/L
  Na: 139.6 meq/L
  PL: 179.8 mg/dL
  RALB: 3.4 g/dL
  TBIL: 0.3 mg/dL
  TC: 87.2 mg/dL
  TG: 159.6 mg/dL
  TP: 5.6 g/dL
  gamma-GTP: 0.6 IU/L
[2]
  TERMINAL_BW: 204.3 g
  APTT: 17 s
  Bas: 0%
  Eos: 0.8%
  Fbg: 230.8 mg/dL
  Hb: 13 g/dL
  Ht: 37.6%
  Lym: 69%
  MCH: 22 pg
  MCHC: 34.6%
  MCV: 63.4 fL
  Mono: 3.4%
  Neu: 26.6%
  PT: 12.1 s
  Plat: 140.4 x10_4/uL
  RBC: 593.6 x10_4/ul
  Ret: 8.9%
  WBC: 98.9 x10_2/uL
  KIDNEY_L: 0.9 g
  KIDNEY_R: 0.9 g
  KIDNEY_TOTAL: 1.8 g
  LIVER: 9 g
  A/G: 1.5
  ALP: 1166.6 IU/L
  ALT: 31.4 IU/L
  AST: 62.8 IU/L
  BUN: 9.6 mg/dL
  CRE: 0.4 mg/dL
  Ca: 10.7 mg/dL
  Cl: 104 meq/L
  DBIL: 0.094 mg/dL
  GLC: 196.8 mg/dL
  IP: 9.8 mg/dL
  K: 4.1 meq/L
  LDH: 189.2 IU/L
  Na: 139.8 meq/L
  PL: 161.4 mg/dL
  RALB: 3.3 g/dL
  TBIL: 0.2 mg/dL
  TC: 89.4 mg/dL
  TG: 61 mg/dL
  TP: 5.4 g/dL
  gamma-GTP: 1 IU/L
[3]
  TERMINAL_BW: 201.8 g
  APTT: 16.1 s
  Bas: 0%
  Eos: 0.8%
  Fbg: 222.4 mg/dL
  Hb: 12.6 g/dL
  Ht: 36.6%
  Lym: 76.6%
  MCH: 22.2 pg
  MCHC: 34.6%
  MCV: 64.2 fL
  Mono: 2.2%
  Neu: 20%
  PT: 12.2 s
  Plat: 131.9 x10_4/uL
  RBC: 570 x10_4/ul
  Ret: 9.7%
  WBC: 82.1 x10_2/uL
  KIDNEY_L: 0.9 g
  KIDNEY_R: 0.9 g
  KIDNEY_TOTAL: 1.8 g
  LIVER: 8.6 g
  A/G: 1.4
  ALP: 961.6 IU/L
  ALT: 30 IU/L
  AST: 62.6 IU/L
  BUN: 11.2 mg/dL
  CRE: 0.4 mg/dL
  Ca: 10.3 mg/dL
  Cl: 102.4 meq/L
  DBIL: 0.066 mg/dL
  GLC: 207.2 mg/dL
  IP: 10.7 mg/dL
  K: 3.7 meq/L
  LDH: 163 IU/L
  Na: 139.2 meq/L
  PL: 129.8 mg/dL
  RALB: 3.1 g/dL
  TBIL: 0.1 mg/dL
  TC: 69.8 mg/dL
  TG: 35.6 mg/dL
  TP: 5.4 g/dL
  gamma-GTP: 1.2 IU/L
[4]
  TERMINAL_BW: 215.9 g
  APTT: 18.1 s
  Bas: 0.2%
  Eos: 1%
  Fbg: 256.8 mg/dL
  Hb: 13.7 g/dL
  Ht: 38.8%
  Lym: 82%
  MCH: 22.5 pg
  MCHC: 35.3%
  MCV: 63.8 fL
  Mono: 2.4%
  Neu: 14.2%
  PT: 11.8 s
  Plat: 140.8 x10_4/uL
  RBC: 607.2 x10_4/ul
  Ret: 8%
  WBC: 105.9 x10_2/uL
  KIDNEY_L: 0.9 g
  KIDNEY_R: 0.9 g
  KIDNEY_TOTAL: 1.9 g
  LIVER: 10.6 g
  A/G: 1.6
  ALP: 1231.6 IU/L
  ALT: 37.2 IU/L
  AST: 66.6 IU/L
  BUN: 15 mg/dL
  CRE: 0.4 mg/dL
  Ca: 10.9 mg/dL
  Cl: 103 meq/L
  DBIL: 0.088 mg/dL
  GLC: 202.2 mg/dL
  IP: 7.4 mg/dL
  K: 3.8 meq/L
  LDH: 186.2 IU/L
  Na: 140 meq/L
  PL: 156.2 mg/dL
  RALB: 3.5 g/dL
  TBIL: 0.2 mg/dL
  TC: 79.2 mg/dL
  TG: 100 mg/dL
  TP: 5.7 g/dL
  gamma-GTP: 1.2 IU/L
30 mg/kg, 3 h, dose level Low
  TERMINAL_BW: 206.6 g
  APTT: 16.5 s
  Bas: 0%
  Eos: 0.8%
  Fbg: 259.6 mg/dL
  Hb: 13 g/dL
  Ht: 37.5%
  Lym: 76.6%
  MCH: 21.2 pg
  MCHC: 34.6%
  MCV: 61.4 fL
  Mono: 3.4%
  Neu: 19%
  PT: 12.3 s
  Plat: 127.9 x10_4/uL
  RBC: 610.8 x10_4/ul
  Ret: 8.6%
  WBC: 95.4 x10_2/uL
  KIDNEY_L: 0.9 g
  KIDNEY_R: 0.9 g
  KIDNEY_TOTAL: 1.9 g
  LIVER: 9.7 g
  A/G: 1.6
  ALP: 1090.2 IU/L
  ALT: 39.6 IU/L
  AST: 67.4 IU/L
  BUN: 11.8 mg/dL
  CRE: 0.4 mg/dL
  Ca: 10.9 mg/dL
  Cl: 104 meq/L
  DBIL: 0.1 mg/dL
  GLC: 192.6 mg/dL
  IP: 9.8 mg/dL
  K: 3.8 meq/L
  LDH: 198.8 IU/L
  Na: 140.2 meq/L
  PL: 169.2 mg/dL
  RALB: 3.4 g/dL
  TBIL: 0.2 mg/dL
  TC: 86 mg/dL
  TG: 81.2 mg/dL
  TP: 5.6 g/dL
  gamma-GTP: 1.4 IU/L
30 mg/kg, 6 h, dose level Low
  TERMINAL_BW: 205.6 g
  APTT: 17.9 s
  Bas: 0%
  Eos: 1%
  Fbg: 242 mg/dL
  Hb: 13.1 g/dL
  Ht: 37.4%
  Lym: 72.8%
  MCH: 22 pg
  MCHC: 34.9%
  MCV: 63.1 fL
  Mono: 2.6%
  Neu: 22.8%
  PT: 12.7 s
  Plat: 134.6 x10_4/uL
  RBC: 593.6 x10_4/ul
  Ret: 8.6%
  WBC: 78.1 x10_2/uL
  KIDNEY_L: 0.9 g
  KIDNEY_R: 0.9 g
  KIDNEY_TOTAL: 1.8 g
  LIVER: 9.4 g
  A/G: 1.7
  ALP: 1051 IU/L
  ALT: 29.4 IU/L
  AST: 63.8 IU/L
  BUN: 10.2 mg/dL
  CRE: 0.4 mg/dL
  Ca: 10.6 mg/dL
  Cl: 104.4 meq/L
  DBIL: 0.1 mg/dL
  GLC: 195 mg/dL
  IP: 9.4 mg/dL
  K: 4.1 meq/L
  LDH: 221.2 IU/L
  Na: 139.6 meq/L
  PL: 159 mg/dL
  RALB: 3.5 g/dL
  TBIL: 0.2 mg/dL
  TC: 79 mg/dL
  TG: 91.2 mg/dL
  TP: 5.6 g/dL
  gamma-GTP: 1 IU/L
30 mg/kg, 9 h, dose level Low
  TERMINAL_BW: 201.5 g
  APTT: 17.2 s
  Bas: 0%
  Eos: 0.8%
  Fbg: 229.4 mg/dL
  Hb: 12.7 g/dL
  Ht: 36.5%
  Lym: 74%
  MCH: 21.4 pg
  MCHC: 34.8%
  MCV: 61.6 fL
  Mono: 2.2%
  Neu: 22.6%
  PT: 12.5 s
  Plat: 126.6 x10_4/uL
  RBC: 593.2 x10_4/ul
  Ret: 9.1%
  WBC: 76.5 x10_2/uL
  KIDNEY_L: 0.9 g
  KIDNEY_R: 0.9 g
  KIDNEY_TOTAL: 1.8 g
  LIVER: 8.6 g
  A/G: 1.6
  ALP: 1042.2 IU/L
  ALT: 29.8 IU/L
  AST: 58 IU/L
  BUN: 10 mg/dL
  CRE: 0.4 mg/dL
  Ca: 10.4 mg/dL
  Cl: 103.8 meq/L
  DBIL: 0.09 mg/dL
  GLC: 196.8 mg/dL
  IP: 10.6 mg/dL
  K: 3.6 meq/L
  LDH: 174 IU/L
  Na: 140.2 meq/L
  PL: 150.8 mg/dL
  RALB: 3.3 g/dL
  TBIL: 0.2 mg/dL
  TC: 75.8 mg/dL
  TG: 57.2 mg/dL
  TP: 5.4 g/dL
  gamma-GTP: 0.8 IU/L
30 mg/kg, 24 h, dose level Low
  TERMINAL_BW: 211.3 g
  APTT: 19.1 s
  Bas: 0%
  Eos: 0.8%
  Fbg: 229.6 mg/dL
  Hb: 13.6 g/dL
  Ht: 38.8%
  Lym: 84.4%
  MCH: 22.4 pg
  MCHC: 35%
  MCV: 64 fL
  Mono: 2.6%
  Neu: 11.6%
  PT: 12.1 s
  Plat: 132.2 x10_4/uL
  RBC: 606.4 x10_4/ul
  Ret: 8%
  WBC: 101.3 x10_2/uL
  KIDNEY_L: 1 g
  KIDNEY_R: 1 g
  KIDNEY_TOTAL: 2 g
  LIVER: 10.4 g
  A/G: 1.6
  ALP: 1115.2 IU/L
  ALT: 42.4 IU/L
  AST: 69.6 IU/L
  BUN: 14.8 mg/dL
  CRE: 0.4 mg/dL
  Ca: 10.7 mg/dL
  Cl: 103.8 meq/L
  DBIL: 0.07 mg/dL
  GLC: 202 mg/dL
  IP: 7.7 mg/dL
  K: 3.8 meq/L
  LDH: 188.8 IU/L
  Na: 140.6 meq/L
  PL: 155.2 mg/dL
  RALB: 3.5 g/dL
  TBIL: 0.1 mg/dL
  TC: 81.2 mg/dL
  TG: 61.8 mg/dL
  TP: 5.7 g/dL
  gamma-GTP: 1.4 IU/L
